Results as given in patent publication US11684660B2, “Human PD1 peptide vaccines and uses thereof” (OHIO STATE INNOVATION FOUNDATION, priority 2017, dated 2023).
No end group written: not given here.

Legend:
[1] = tested on: murine colon carcinoma CT26 tumor cells; assay: CT26 tumor challenge in Balb/c mice immunized with PD-1 constructs; type: in vivo
Protocol: Immunocompetent Balb/c mice of 6-8 weeks of age were purchased from Charles River Laboratories, Wilmington, Mass. and housed in The Ohio State University's University Laboratory Animal Resources (ULAR) facilitates. Isoflurane was used to anaesthetize the animals before cells injection and termination. Pre-immune sera samples were taken from the mice then they were immunized with 100 μg of peptide emulsified in Montanide ISA 720 (Seppic, Paris, France) and nor-MDP adjuvant (N-acetyl-glucosamine-3 yl-acetyl L-alanyl-D-isoglutamine). Mice received booster immunizations 3 and 6 weeks after the first. Several test sera samples were taken from the mice (FIG. 8).
10 days after the second boost, mice were inoculated with […] murine colon carcinoma CT26 tumor cells subcutaneous on the right flank. Tumor growth was monitored three times a week and sera samples were taken weekly and upon sacrifice of the animal. Control mice on day 0 were engrated with 1×10^5 CT26 tumor cells subcutaneous and received. The animals received 150 μg injections of anti-mouse antibodies directed against PD-1. Mice were monitored and scored for the formation of palpable tumors twice weekly and sacrificed if tumors became necrotic or exceeded the predetermined size of 2,000 mm3. Tumor diameters were measured twice a week. Tumor size was calculated according to the formula: V=[(length ×width2)/2]. Tumor volumes were measured in cubic millimeters with calipers and calculated with the following formula: A×B2×0.5, where A is the largest diameter, and B is the smallest diameter. All experiments were performed in accordance with the U.S. Public Health Service Policy on Humane Care and Use of Laboratory Animals and approved by the Ohio State University Institutional Animals Care and Use Committee and detailed in the accepted protocol
To assess performance of 4 different vaccine treatments on tumor growth, tumor size was measured periodically in mice, and the results were compared to those of positive and negative controls. There were 5 mice in each treatment group, each receiving the assigned MVF-peptide and then being inoculated with 1e5 CT26 (colon) tumor cells 10 days after the final boost of the treatment. Day 14 was considered the primary time point of interest, as the investigators believed waiting until day 19 allowed the tumors too much time to grow, resulting in similar sizes at that point of the experiment. Tumor size was measured in three ways: LWW (½*length*width*width) at all time points, LWH (½*length*width*height) at all time points, and terminal tumor weight at the end of the study. The mice treated with MVF-PD-a(45), group C, were sacrificed before day 19 due to the death of one mouse, so the comparisons can only be made between tumor size at day 14. Tumor size is in units of mm3 for LWW and LWH and grams for terminal tumor weight.
Due to small sample sizes in each group and inability to assume normality, the exact Wilcoxon rank-sum test was used to check for systematic differences between the distributions of tumor size at times 14 days and 19 days (FIGS. 12A-D and Tables 7-10). P-values given are for test comparing that column's control to the respective treatment, and are two-sided to account for the possibility of tumor size being systematically larger or smaller between treatment and control. As this is preliminary data, the p-values are not adjusted for multiple comparisons. Overall, there were few instances of significant differences between the distributions of a control and a treatment.
Immunocompetent Balb/c mice (5 mice/gp) of 6-8 weeks of age were immunized with 100 μg of peptide emulsified in Montanide ISA 720 (Seppic, Paris, France) and nor-MDP adjuvant (N-acetyl-glucosamine-3 yl-acetyl L-alanyl-D-isoglutamine). […]

Nivolumab = assay: BIACORE SPR binding to immobilized Nivolumab; details: 1 μM peptide
Protocol: 1 μM BSA was used as the negative control. The chip was regenerated by 10 mM Glycine-HCl, pH 2.5(FIG. 3E).
1 μM of various PD-1 peptides were injected over the chip for 1 min at 10 μl/min followed by 1 min dissociation and then 1 min regeneration with 10 mM Glycine-HCl, pH 2.5 for each run.

KLLSLIKGVIVHRLEGVE-GPSL-GAISLAPKAQIKESLRAEL-CONH2 (KLLSLIKGVIVHRLEGVEGPSLGAISLAPKAQIKESLRAEL-NH2) [MVF-PD-1 (92-110)]
inhibition of tumor growth ([1]; Day 14, FIG. 15): significant inhibition of tumor growth
median terminal tumor weight ([1]; end of study, 5 mice/group): 1.1 grams
difference in tumor size distribution versus controls ([1]; exact Wilcoxon rank-sum test, two-sided, unadjusted): systematically smaller tumor sizes than the positive control
median tumor size LWH, Day 19 ([1]; median, 5 mice/group): 819 mm3
median tumor size LWW, Day 19 ([1]; median, 5 mice/group): 1080 mm3
median tumor size LWH, Day 14 ([1]; median, 5 mice/group, ½*length*width*height): 270 mm3
median tumor size LWW, Day 14 ([1]; median, 5 mice/group, ½*length*width*width): 384 mm3
binding to immobilized Nivolumab (in words) (Nivolumab): bind
SPR response of peptide binding to immobilized Nivolumab (Nivolumab; 1 min at 10 μl/min): 970 RU
